Experiments:
NIH3T3 cells = format: cell-based; details: NIH3T3, 48 h, MTT
Protocol: Cell culture medium was purchased from Invitrogen and fetal bovine serum (FBS) from Hyclone. Cells were propagated and maintained in DMEM medium (high glucose) supplemented with 10% FBS at 37° C. humidified air and 5% CO2.
Cells suspended in DMEM containing 10% FBS were plated in 96-well plates (MDA-MB-231: 12,000 cells; NMuMG: 5,000 cells; U2OS: 5,000 cells; HT29: 10,000 cells; IMR-32: 30,000 cells; NIH3T3: 5,000 cells) incubated (37° C., 5% CO2) and 24 h later treated with various concentrations of compound 21 or solvent control (1% EtOH). After another 48 h of incubation, cell viability was measured using MTT according to manufacturer's instructions (Promega).
MDA-MB-231 and NMuMG cells were also treated with paclitaxel (in DMSO), actinomycin D (in DMSO) and doxorubicin (in H2O) and corresponding solvent control (1%) in the same manner. GI50 and LC50 values were calculated as previously described (K. D. Paull, E. Hamel, L. Malspeis, In Cancer Chemotherapeutic Agents, W. E. Foye, Ed., American Chemical Society, Washington, D.C., 1995, pp. 10-11).
[formula] [T=absorbance in treated wells (48 h); T0=absorbance at time zero; C=absorbance in control wells (48 h)]

[1] = test system: HeLa nuclear extract HDACs (class I HDACs 1, 2, and 3); assay: HeLa nuclear extract HDAC inhibition; format: biochemical; details: HeLa cell nuclear protein extract
Source text: Largazole (21) inhibited HDAC activity from a HeLa cell nuclear protein extract rich in class I HDACs 1, 2, and 3 (BIOMOL); however, it is possible that the thioester is cleaved under assay conditions. To investigate that thiol 29 is a reactive species, we liberated 29 from the acetyl analog 28 of largazole (21) and measured enzymatic activity directly; thiol […] inhibited the HDACs in the nuclear extract of HeLa cells with a similar IC50 value (Table 3).

HCT-116 cells = assay: HCT-116 growth inhibition; format: cell-based
HDAC = assay: HCT-116 HDAC cellular assay (Fluor de Lys substrate); format: cell-based; details: HCT-116, 8 h, fluorogenic HDAC substrate

CCCCCCCC(=O)SCC/C=C/[C@@H]1CC(=O)NCc2nc(cs2)C2=N[C@@](C)(CS2)C(=O)N[C@@H](C(C)C)C(=O)O1 [Compound 21, Largazole] was tested, and the “toxicity (cytotoxicity)” value (NIH3T3 cells) was “no apparent toxicity”.

Work on CC(=O)SCC/C=C/[C@@H]1CC(=O)NCc2nc(cs2)C2=N[C@@](C)(CS2)C(=O)N[C@@H](C(C)C)C(=O)O1 [Compound 28] yielded an IC50 [1] of 52 ± 27 nM, a GI50 (HCT-116 cells) of 33 ± 2 nM and an IC50 (HDAC) of 50 ± 18 nM.

Reference: US8759512B2, “Methods of preparation of macrocyclic compounds” (University of Florida Research Foundation, Inc., priority 2008, dated 2014)
